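Here, GI50 denotes the concentration required for 50% inhibition of growth. TGI is the concentration that stops growth completely.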
Legend:
Assay in all cases: NCI-60 cell line screen, 384-well format
786-0 renal = system: 786-0 renal
A498 renal = system: A498 renal
A549 NSCLC = system: A549 NSCLC
ACHN renal = system: ACHN renal
BT-549 breast = system: BT-549 breast
CAKI-1 renal = system: CAKI-1 renal
CCRF-CEM leukemia = system: CCRF-CEM leukemia
COLO 205 colon = system: COLO 205 colon
DU-145 prostate = system: DU-145 prostate
EKVX NSCLC = system: EKVX NSCLC
HCC-2998 colon = system: HCC-2998 colon
HCT-116 colon = system: HCT-116 colon
HCT-15 colon = system: HCT-15 colon
HL-60(TB) leukemia = system: HL-60(TB) leukemia
HOP-62 NSCLC = system: HOP-62 NSCLC
HOP-92 NSCLC = system: HOP-92 NSCLC
HS 578T breast = system: HS 578T breast
HT29 colon = system: HT29 colon
IGROV1 ovarian = system: IGROV1 ovarian
K-562 leukemia = system: K-562 leukemia
KM12 colon = system: KM12 colon
M14 melanoma = system: M14 melanoma
MALME-3M melanoma = system: MALME-3M melanoma
MCF7 breast = system: MCF7 breast
MDA-MB-231 breast = system: MDA-MB-231 breast
MDA-MB-435 melanoma = system: MDA-MB-435 melanoma
MDA-MB-468 breast = system: MDA-MB-468 breast
MOLT-4 leukemia = system: MOLT-4 leukemia
NCI-H226 lung = system: NCI-H226 lung
NCI-H23 lung = system: NCI-H23 lung
NCI-H322M lung = system: NCI-H322M lung
NCI-H460 NSCLC = system: NCI-H460 NSCLC
NCI-H522 lung = system: NCI-H522 lung
NCI/ADR-RES ovarian = system: NCI/ADR-RES ovarian
OVCAR-3 ovarian = system: OVCAR-3 ovarian
OVCAR-4 ovarian = system: OVCAR-4 ovarian
OVCAR-5 ovarian = system: OVCAR-5 ovarian
OVCAR-8 ovarian = system: OVCAR-8 ovarian
PC-3 prostate = system: PC-3 prostate
RPMI-8226 leukemia = system: RPMI-8226 leukemia
RXF 393 renal = system: RXF 393 renal
SF-268 CNS = system: SF-268 CNS
SF-295 CNS = system: SF-295 CNS
SF-539 CNS = system: SF-539 CNS
SK-MEL-2 melanoma = system: SK-MEL-2 melanoma
SK-MEL-28 melanoma = system: SK-MEL-28 melanoma
SK-MEL-5 melanoma = system: SK-MEL-5 melanoma
SK-OV-3 ovarian = system: SK-OV-3 ovarian
SN12C renal = system: SN12C renal
SNB-19 CNS = system: SNB-19 CNS
SNB-75 CNS = system: SNB-75 CNS
SR leukemia = system: SR leukemia
SW-620 colon = system: SW-620 colon
T-47D breast = system: T-47D breast
TK-10 renal = system: TK-10 renal
U251 glioblastoma = system: U251 glioblastoma
UACC-257 melanoma = system: UACC-257 melanoma
UACC-62 melanoma = system: UACC-62 melanoma

C[C@@H]1OC(O)[C@@H](F)[C@H](O)[C@@H]1O (stereo partly specified)
GI50 ([…]-0 renal): > 100 µM | TGI (786-0 renal): > 100 µM | GI50 (A498 renal): > 100 µM | TGI (A498 renal): > 100 µM | GI50 (A549 NSCLC): > 100 µM | TGI (A549 NSCLC): > 100 µM | GI50 (ACHN renal): > 100 µM | TGI (ACHN renal): > 100 µM | GI50 (BT-549 breast): > 100 µM | TGI (BT-549 breast): > 100 µM | GI50 (CAKI-1 renal): > 100 µM | TGI (CAKI-1 renal): > 100 µM | GI50 (CCRF-CEM leukemia): > 100 µM | TGI (CCRF-CEM leukemia): > 100 µM | GI50 (COLO 205 colon): > 100 µM | TGI (COLO 205 colon): > 100 µM | GI50 (DU-145 prostate): > 100 µM | TGI (DU-145 prostate): > 100 µM | GI50 (EKVX NSCLC): > 100 µM | TGI (EKVX NSCLC): > 100 µM | GI50 (HCC-2998 colon): > 100 µM | TGI (HCC-2998 colon): > 100 µM | GI50 (HCT-116 colon): > 100 µM | TGI (HCT-116 colon): > 100 µM | GI50 (HCT-15 colon): > 100 µM | TGI (HCT-15 colon): > 100 µM | GI50 (HL-60(TB) leukemia): > 100 µM | TGI (HL-60(TB) leukemia): > 100 µM | GI50 (HOP-62 NSCLC): > 100 µM | TGI (HOP-62 NSCLC): > 100 µM | GI50 (HOP-92 NSCLC): > 100 µM | TGI (HOP-92 NSCLC): > 100 µM | GI50 (HS 578T breast): > 100 µM | TGI (HS 578T breast): > 100 µM | GI50 (HT29 colon): > 100 µM | TGI (HT29 colon): > 100 µM | GI50 (IGROV1 ovarian): > 100 µM | TGI (IGROV1 ovarian): > 100 µM | GI50 (K-562 leukemia): > 100 µM | TGI (K-562 leukemia): > 100 µM | GI50 (KM12 colon): > 100 µM | TGI (KM12 colon): > 100 µM | GI50 (M14 melanoma): > 100 µM | TGI (M14 melanoma): > 100 µM | GI50 (MALME-3M melanoma): > 100 µM | TGI (MALME-3M melanoma): > 100 µM | GI50 (MCF7 breast): > 100 µM | TGI (MCF7 breast): > 100 µM | GI50 (MDA-MB-231 breast): > 100 µM | TGI (MDA-MB-231 breast): > 100 µM | GI50 (MDA-MB-435 melanoma): > 100 µM | TGI (MDA-MB-435 melanoma): > 100 µM | GI50 (MDA-MB-468 breast): > 100 µM | TGI (MDA-MB-468 breast): > 100 µM | GI50 (MOLT-4 leukemia): > 100 µM | TGI (MOLT-4 leukemia): > 100 µM | GI50 (NCI-H226 lung): > 100 µM | TGI (NCI-H226 lung): > 100 µM | GI50 (NCI-H23 lung): > 100 µM | TGI (NCI-H23 lung): > 100 µM | GI50 (NCI-H322M lung): > 100 µM | TGI (NCI-H322M lung): > 100 µM | GI50 (NCI-H460 NSCLC): > 100 µM | TGI (NCI-H460 NSCLC): > 100 µM | GI50 (NCI-H522 lung): > 100 µM | TGI (NCI-H522 lung): > 100 µM | GI50 (NCI/ADR-RES ovarian): > 100 µM | TGI (NCI/ADR-RES ovarian): > 100 µM | GI50 (OVCAR-3 ovarian): > 100 µM | TGI (OVCAR-3 ovarian): > 100 µM | GI50 (OVCAR-4 ovarian): > 100 µM | TGI (OVCAR-4 ovarian): > 100 µM | GI50 (OVCAR-5 ovarian): > 100 µM | TGI (OVCAR-5 ovarian): > 100 µM | GI50 (OVCAR-8 ovarian): > 100 µM | TGI (OVCAR-8 ovarian): > 100 µM | GI50 (PC-3 prostate): > 100 µM | TGI (PC-3 prostate): > 100 µM | GI50 (RPMI-8226 leukemia): > 100 µM | TGI (RPMI-8226 leukemia): > 100 µM | GI50 (RXF 393 renal): > 100 µM | TGI (RXF 393 renal): > 100 µM | GI50 (SF-268 CNS): > 100 µM | TGI (SF-268 CNS): > 100 µM | GI50 (SF-295 CNS): > 100 µM | TGI (SF-295 CNS): > 100 µM | GI50 (SF-539 CNS): > 100 µM | TGI (SF-539 CNS): > 100 µM | GI50 (SK-MEL-2 melanoma): > 100 µM | TGI (SK-MEL-2 melanoma): > 100 µM | GI50 (SK-MEL-28 melanoma): > 100 µM | TGI (SK-MEL-28 melanoma): > 100 µM | GI50 (SK-MEL-5 melanoma): > 100 µM | TGI (SK-MEL-5 melanoma): > 100 µM | GI50 (SK-OV-3 ovarian): > 100 µM | TGI (SK-OV-3 ovarian): > 100 µM | GI50 (SN12C renal): > 100 µM | TGI (SN12C renal): > 100 µM | GI50 (SNB-19 CNS): > 100 µM | TGI (SNB-19 CNS): > 100 µM | GI50 (SNB-75 CNS): > 100 µM | TGI (SNB-75 CNS): > 100 µM | GI50 (SR leukemia): > 100 µM | TGI (SR leukemia): > 100 µM | GI50 (SW-620 colon): > 100 µM | TGI (SW-620 colon): > 100 µM | GI50 (T-47D breast): > 100 µM | TGI (T-47D breast): > 100 µM | GI50 (TK-10 renal): > 100 µM | TGI (TK-10 renal): > 100 µM | GI50 (U251 glioblastoma): > 100 µM | TGI (U251 glioblastoma): > 100 µM | GI50 (UACC-257 melanoma): > 100 µM | TGI (UACC-257 melanoma): > 100 µM | GI50 (UACC-62 melanoma): > 100 µM | TGI (UACC-62 melanoma): > 100 µM

Reference: PubChem BioAssay (NCI)
